Assay results reported in patent publication US20060178307A1, “Modulation of NMDA receptor currents via orexin receptor and/or CRF receptor” (priority 2005, published 2006).
“Also recorded” adds a separate entry of the source.

Columns and labels:
AMPAR mEPSCs = test: AMPAR-mediated miniature EPSCs (mEPSCs) in VTA neurons; format: cell-based, rat; settings: APV 50 μM 3 min prior and during orexin application
Description: Next, to investigate whether AMPAR function and/or number was modified with orexin A treatment, AMPAR-mediated miniature EPSCs (mEPSCs) were examined (a standard method for determining the locus of synaptic change). Compared to untreated neurons, orexin A (100 nM) caused a significant increase in both amplitude (FIG. 6C,D,F) and frequency (FIG. 6C,E,G) 3-4 hours after application (24±1.6 pA; 2.4±0.5 Hz; n=7 vs control: 13±1.3 pA; 0.93±0.16 Hz; n=7; FIG. 6A), but not at 15 min (15±1.7 pA; 0.9±0.1 Hz; n=[…], FIG. 6B).
AMPAR mEPSCs were recorded in cells voltage-clamped at −70 mV in lidocaine (500 μM), APV (50 μM) and sucrose (100 mM). NMDAR mEPSCs were recorded at −40 mV in Mg2+-free external solution with lidocaine (500 μM), glycine (20 μM), and CNQX (10 μM). mEPSCs were collected using Clampex (Axon Instruments) and analyzed using Mini Analysis Program (Synaptosoft). Detection criteria were set at >10 pA, <1 ms rise-time, and <3 ms decay-time for AMPAR mEPSCs and >10 pA, <1 ms rise-time, and <10 ms decay-time for NMDAR mEPSCs. mEPSC traces were recorded while sampling every 10 μs, the images were filtered at 5 kHz. Averaged mEPSCs were constructed using Mini Analysis Program (Synaptosoft).

[1] = test system: NMDAR-mediated EPSCs in VTA dopamine neurons; test: Evoked NMDAR-mediated EPSCs, whole-cell voltage clamp at +40 mV, VTA neurons in midbrain slices; format: cell-based, rat; settings: for effect on potentiation of NMDAR-mediated EPSCs by orexin A: inhibitor 100 μM in patch pipette; for effect on potentiation of NMDAR-mediated EPSCs by 100 nM orexin A: inhibitor 1 μM in patch pipette
Description: Excitatory postsynaptic currents (EPSCs) were recorded from VTA neurons in rat midbrain slices. EPSCs were evoked while holding neurons in voltage clamp at +40 mV. Measurements were taken 20 ms after the stimulus artifact, a time point at which the glutamatergic EPSC is mediated purely by NMDARs.
The patch pipette was loaded with the PLC inhibitor, U-73122 (1 μM, FIG. 2A, C, n=6) or the PKC inhibitor, chelerythrin (1 μM, FIG. 1A, B, n=6). […] Next, the protein kinase A inhibitor, PKI (20 μM, FIG. 2A, F, n=8) or Rp-cAMPs, a blocker of cAMP (100 μM, FIG. 2A, E, n=5) was added to the patch pipette.
Activation of PKC is implicated in NMDAR-dependent long-term potentiation (Malinow et al., 1989) and it modulates NMDAR trafficking to the membrane (Lan et al., 2001; Scott et al., 2001; Fong et al., 2002). NMDARs can translocate from intracellular or extrasynaptic pools to synaptic sites (Lan et al., 2001; Tovar and Westbrook, 2002). […] In a separate group of slices, orexin A (100 nM, n=6) was applied for 5 min during the washout period.
All of the electrophysiological recordings were performed in rats ranging from P21 to P30. Briefly, rats were anesthetized with halothane and sacrificed. Horizontal sections of the VTA ([…]) were prepared with a vibratome (Leica, Nussloch, Germany). Slices were placed in a holding chamber and allowed to recover for at least 1 hour before being placed in the recording chamber and superfused with bicarbonate-buffered solution (ACSF) saturated with 95% O2/5% CO2 and containing (in mM): 119 NaCl, 1.6 KCl, 1.0 NaH2PO4, 1.3 MgCl2, 2.5 CaCl2, 26.2 NaHCO3 and 11 glucose (at 32-34° C.). Picrotoxin (100 μM) was added to block GABAA receptor-mediated inhibitory postsynaptic currents. Cells were visualized using infrared differential interference contrast video microscopy. Whole-cell voltage clamp recordings were made using an Axopatch 1D amplifier (Axon Instruments, Union City, Calif.). Electrodes (2.8-4.0 MΩ) contained (in mM): 120 Cesium Methansulfonate, 20 HEPES, 0.4 EGTA, 2.8 NaCl, 5 TEA-Cl, 2.5 MgATP, and 0.25 NaGTP, pH 7.2-7.3 (270-285 mOsm). Series resistance (10-40 MΩ) and input resistance were monitored on-line with a 4-mV depolarizing step (50 ms) given just after every afferent stimulus. Dopaminergic VTA neurons were identified by the presence of a large Ih current (Lacey et al., 1990; Johnson and North, 1992) and, in some cases, tyrosine hydroxylase labeling. A bipolar stimulating electrode was placed 100-300 μm rostral to the recording electrode and was used to stimulate excitatory afferents at 0.1 Hz. Neurons were voltage-clamped at −70 mV and +40 mV to record AMPAR- and NMDAR-mediated EPSCs.

In the case of N[C@H](CCCP(=O)(O)O)C(=O)O [APV, D (−)-2-Amino-5-phosphonopentanoic acid], the “effect on orexin A-induced increase in AMPAR mEPSC amplitude at 3-4 hours” value (AMPAR mEPSCs) is reported as “significantly reduced; also recorded: blocked”.
In the case of C[C@H](NC(c1cccc2[nH]c(=O)c(=O)[nH]c12)P(=O)(O)O)c1ccc(Br)cc1 (stereo partly drawn) [NVP-AAM077], the remaining current ([1]; NVP-AAM077 0.4 μM applied during peak increase induced by 100 nM orexin A, n=6) is reported as 87±11%, the “effect on expression of orexin A-mediated potentiation of NMDAR EPSCs” value ([1]; NVP-AAM077 0.4 μM applied during peak of potentiation) is reported as “blocked; also recorded: reversed” and the “effect on ability of 100 nM orexin A to potentiate NMDAR EPSCs” value ([1]; NVP-AAM077 0.4 μM pre-applied) is reported as “significantly reduced”. The “inhibition of NMDAR EPSCs” value ([1]; bath application 0.4 μM, n=6) was 54±7%.
O=C(O)C1NCCN(C(=O)c2ccc3c(ccc4ccccc43)c2)C1C(=O)O (stereo not drawn) [PPDA, 1-(phenantrene-2carbonyl) piperazine-2,3-dicarboxylic acid] was tested, and the “additional inhibition of NMDAR EPSCs” value ([1]; 1 μM on top of NVP-AAM077 and ifenprodil) was 10%, the “effect on orexin A (100 nM)-mediated NMDAR potentiation” value ([1]; PPDA 1 μM after co-application of NVP-AAM077 and ifenprodil) was “blocked” and the remaining current ([1]; PPDA 1 μM with NVP-AAM077 and ifenprodil, n=6) was 14±2.2%.
Nc1ncnc2c1ncn2[C@@H]1O[C@@H]2CO[P@@](O)(=S)O[C@H]2[C@H]1O [Rp-cAMPs] was tested, and the “effect on potentiation of NMDAR-mediated EPSCs by orexin A” value ([1]; n=5) was “robust potentiation” and the “effect on potentiation of NMDAR-mediated EPSCs by orexin A” value ([1]; n=5, listed as Rp-cAMPS) was “did not block”.
In the case of COc1ccc2c(c1)CC[C@@H]1[C@@H]2CC[C@]2(C)[C@@H](NCCCCCCN3C(=O)C=CC3=O)CC[C@@H]12 [U-73122], the “effect on potentiation of NMDAR-mediated EPSCs by 100 nM orexin A” value ([1]; n=6) is reported as “completely blocked” and the “effect on potentiation of NMDAR-mediated EPSCs by 100 nM orexin A” value ([1]; n=6, listed as U73122) is reported as “blocked”.
In the case of [Zn+2] [Zn^2+], the “inhibition of NMDAR EPSCs” value ([1]; 100 nM, n=6) is reported as 13±8%, the “inhibition of NMDAR EPSCs” value ([1]; 300 nM, n=5) is reported as 29±9% and the “effect on orexin A-mediated potentiation of NMDARs” value ([1]; Zn2+ 300 nM) is reported as “significantly reduced; also recorded: mostly blocked”.
